What was measured:
[1] = target: Shigella flexneri apyrase, mutant apyrase of Example 1, SEQ ID NO: 3 (S50N, F54V, G63R, L66V, N70Q, E77V, A791, D90T, S97T, L108M, Q113N, V120R, K124R, Y127Q, P (Shigella flexneri, UniProt Q59909, A167G/A79I/D90T/E243D/E77V/F162N/F223W/F234Y/F53V/G185A/G206R/G63R/I151L/K124R/K178R/L108M/L182F/L227S/L66V/N174Q/N219K/N70Q/P143R/Q113N/S50N/S97T/T239Q/V120R/V213A/W199Y/Y127Q)); experiment: ATP hydrolysis, Km for ATP (Example 2), mutant; format: biochemical; conditions: mutant of Example 1; 50 mM Tris, pH 7.5, 37° C., 30 min, 700 ng enzyme
Method: In order to improve the activity of apyrase and its tolerance to high salt conditions, the inventors mutated the apyrase gene randomly using an error prone PCR method starting from the wild-type Shigella flexneri apyrase DNA sequence (SEQ ID NO: 4) as template. The method incorporates repeated copying of the template at high MgCl2 concentration (5 mM) with Taq polymerase. After every fourth cycle, one fifth of the reaction mixture was transferred to fresh PCR tube and the same process was repeated 22 times to obtain a product that will have randomly mutated nucleotides which can be identified by sequencing. The mutated gene was cloned in pET21a vector. The mutated DNA sequence obtained is presented as SEQ ID NO: 2, containing a total of 31 mutations leading to amino-acid changes (see SEQ ID NO:3 compared to the wild-type amino-acid sequence of SEQ ID NO: 1).
(§1) A titrated series of ATP solutions from 100 mM to 0.01 mM in 50 mM Tris, pH 7.5 were prepared and incubated with 700 ng of Apyrase (mutant prepared in Example 1 and wild-type Shigella flexneri apyrase as control) for 30 minutes at 37° C. (100 μL reaction). After the incubation, 100 μL AMFAS reagent was added and OD was taken at 630 nm using multimode reader (Biotek instruments). […] Specific activity at 10 mM ATP was determined as 6.3 μmoles/min/mg for the mutant apyrase.

[2] = target: T1, wild-type Shigella flexneri apyrase, SEQ ID NO: 1 (Shigella flexneri, UniProt Q59909); experiment: ATP hydrolysis, Km for ATP (Example 2), wild type; format: biochemical; conditions: 50 mM Tris, pH 7.5, 37° C., 30 min, 700 ng enzyme
T1 sequence (Q59909 26-246): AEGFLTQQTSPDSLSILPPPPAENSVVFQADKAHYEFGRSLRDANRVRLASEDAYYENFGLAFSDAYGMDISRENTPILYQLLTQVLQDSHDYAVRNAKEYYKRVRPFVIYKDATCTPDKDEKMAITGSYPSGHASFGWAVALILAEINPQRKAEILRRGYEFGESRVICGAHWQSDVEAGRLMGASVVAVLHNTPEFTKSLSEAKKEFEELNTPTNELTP
Method: as §1, with “instruments). The color formation is proportional to the amount of ATP degraded (dephosphorylated to ADP or AMP).” for “instruments).”

[3] = target: Shigella flexneri apyrase (ApiOne, SEQ ID NO: 1) ApiTwo mutant L66V (Shigella flexneri, UniProt Q59909, L66V); experiment: Affinity towards ATP, L66V; format: biochemical; conditions: 50 mM Tris-HCl pH 7.5, 37° C., 20 min, 500 ng enzyme
From the text: However, not all reactions successfully generated PCR products by agarose gel electrophoresis. The successful mutations were transformed into the expression host and proteins were expressed and purified to homogeneity by affinity chromatography.
Other substrates like 2-Glycerophosphate, Pyridoxal phosphate and phenyl phosphate were not hydrolysed by the mutants (Table 2 and FIG. 8A-B).
(§2) Respective colorimetric/fluorescence assays (mentioned above).

[4] = target: Shigella flexneri apyrase (ApiOne, SEQ ID NO: 1) Double mutant L66V/G63R (Shigella flexneri, UniProt Q59909, G63R/L66V); conditions: read-out: Affinity (Km), ATP, 50 mM Tris-HCl pH 7.5, 37° C., 20 min, 500 ng enzyme
Method: To this 200 μL of Ammonium Molybdate Ferrous Ammonium Sulphate (AMFAS) reagent was added. AMFAS reagent was prepared by mixing equal volumes of reagent A and reagent B, where reagent A comprises of 5% (w/v) ammonium molybdate in 5 N H2SO4 and reagent B contains 1% (w/v) ferrous ammonium sulphate in double-distilled water. The amount of inorganic phosphate formed (product of ATP/ADP hydrolysis) is colorimetrically measured at 630 nm using multi-mode spectrophotometer (Biotek instruments).
The kinetic curves were plotted and the Michaelis Menten constant (Km) was calculated using GraphPad Prism 5.0 software.

[5] = system: EIEC apyrase variant H116L; experiment: Affinity of ATP to EIEC H116L (Table 6); format: biochemical
From the text: as §2

Nc1ncnc2c1ncn2[C@@H]1O[C@H](COP(=O)(O)OP(=O)(O)OP(=O)(O)O)[C@@H](O)[C@H]1O [ATP, Adenosine triphosphate]
Km [1]: 3.6 mM
Km [2]: 3.3 mM
Km [3]: 18.5 µM
Km [4]: 20.7 µM
Km [5]: 24 µM

Reference: patent publication US20240167005A1, “MODIFIED SHIGELLA APYRASE AND USES THEREOF” (APIRAYS BIOSCIENCES AB, priority 2021, published 2024)
